Data published in patent US12528801B2 (Givaudan SA, priority 2019, dated 2026).

Target: T1, hTRPM8 (Homo sapiens, UniProt Q7Z2W7)
T1 construct: expressed in transfected cells
Assay: Assay on TRPM8 modulators: calcium imaging (Fluo-4, Flexstation) in HEK293 cell line stably expressing hTRPM8
Type: cell-based
Conditions: HEK293 cells stably expressing hTRPM8; calcium influx, Fluo-4, Flexstation 3; sigmoidal dose-response fit
Method in brief: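 HEK293 cells stably expressing hTRPM8 were loaded with Fluo-4 AM plus probenecid and kept in HEPES buffer, pH 7.4. Calcium influx to serially diluted compounds was recorded for 120 s. Maximal activation was referenced to solvent control and 31.6 μM menthol, with EC values from sigmoidal dose-response fits.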

T1 sequence (Q7Z2W7 whole entry): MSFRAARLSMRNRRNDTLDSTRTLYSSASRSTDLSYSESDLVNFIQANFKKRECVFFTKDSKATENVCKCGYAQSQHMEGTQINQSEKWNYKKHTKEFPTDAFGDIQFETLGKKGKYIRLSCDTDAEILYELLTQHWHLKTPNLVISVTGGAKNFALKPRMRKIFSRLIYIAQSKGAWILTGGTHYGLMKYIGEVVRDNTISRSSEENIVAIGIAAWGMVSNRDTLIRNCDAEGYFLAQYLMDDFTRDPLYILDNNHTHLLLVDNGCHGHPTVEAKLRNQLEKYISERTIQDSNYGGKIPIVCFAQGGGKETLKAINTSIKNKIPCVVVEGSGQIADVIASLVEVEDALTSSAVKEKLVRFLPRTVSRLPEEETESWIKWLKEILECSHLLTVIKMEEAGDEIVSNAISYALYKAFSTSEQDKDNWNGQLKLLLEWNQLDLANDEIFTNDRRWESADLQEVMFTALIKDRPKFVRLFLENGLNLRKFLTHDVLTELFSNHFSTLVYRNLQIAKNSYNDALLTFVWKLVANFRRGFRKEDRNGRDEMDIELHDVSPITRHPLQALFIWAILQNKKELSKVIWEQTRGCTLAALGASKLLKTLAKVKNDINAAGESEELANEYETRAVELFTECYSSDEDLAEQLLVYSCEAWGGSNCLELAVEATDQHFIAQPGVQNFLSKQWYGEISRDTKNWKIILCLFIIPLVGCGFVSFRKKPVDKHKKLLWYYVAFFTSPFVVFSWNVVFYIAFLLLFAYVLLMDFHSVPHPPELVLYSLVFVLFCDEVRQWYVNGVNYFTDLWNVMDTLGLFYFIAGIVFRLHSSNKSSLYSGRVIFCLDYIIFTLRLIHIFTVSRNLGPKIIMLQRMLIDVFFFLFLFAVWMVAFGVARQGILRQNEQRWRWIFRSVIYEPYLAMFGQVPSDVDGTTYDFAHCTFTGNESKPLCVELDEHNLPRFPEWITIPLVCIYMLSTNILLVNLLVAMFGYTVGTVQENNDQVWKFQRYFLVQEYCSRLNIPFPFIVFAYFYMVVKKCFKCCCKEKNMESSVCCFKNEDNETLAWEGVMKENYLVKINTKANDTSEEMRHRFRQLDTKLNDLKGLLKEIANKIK

Question: How did the EC50 turn out when `CCC(C(=O)N1CCCCC1c1nc(-c2ccccc2)c[nH]1)N(C)C` (stereo not shown) [Compound 93, 2-(dimethylamino)-1-(2-(4-phenyl-1H-imidazol-2-yl)piperidin-1-yl)butan-1-one] was run?
Answer: Its EC50 is 1000 to 35000 nM.

Question: How did the EC50 turn out when `C=CC(C)C(=O)N1CCCCC1c1ncc(-c2ccc(F)c(F)c2)[nH]1` (stereo not shown) [Compound 61, 1-(2-(5-(3,4-difluorophenyl)-1H-imidazol-2-yl)piperidin-1-yl)-2-methylbut-3-en-1-one] was run?
Answer: Its EC50 is less than 50 nM.

Question: Which EC50 does the source give for `O=C(C1CCC1)N1CCCCC1c1ncc(-c2cccc(F)c2)[nH]1` (stereo not shown) [Compound 185, cyclobutyl(2-(5-(3-fluorophenyl)-1H-imidazol-2-yl)piperdin-1-yl)methanone] here?
Answer: The EC50 was 300 to 1000 nM.

Question: `CSC(C)C(=O)N1CCCCC1c1nc(-c2ccccc2F)c[nH]1` (stereo not shown) [Compound 23, 1-(2-(4-(2-fluorophenyl)-1H-imidazol-2-yl)piperidin-1-yl)-2-(methylthio)propan-1-one] was tested. Which EC50 did it give?
Answer: Its EC50 is less than 50 nM.

Question: Which EC50 does the source give for `CC1CC1C(=O)N1CCCCC1c1nc(-c2ccccc2)c[nH]1` (stereo not shown) [Compound 6, (2-methylcyclopropyl)(2-(4-phenyl-1H-imidazol-2-yl)piperidin-1-yl)methanone] here?
Answer: The EC50 was 50 to 300 nM.

Question: `CSC(C)C(=O)N1CCCCC1c1ncc(-c2cc(F)c(F)cc2F)[nH]1` (stereo not shown) [Compound 121, 2-(methylthio)-1-(2-(5-(2,4,5-trifluorophenyl)-1H-imidazol-2-yl)piperidin-1-yl)propan-1-one] was tested. Which EC50 did it give?
Answer: The EC50 was less than 50 nM.

Question: How did the EC50 turn out when `CCC(=O)N1CCCCC1c1nc(-c2ccccc2)c[nH]1` (stereo not shown) [Compound 52, 1-(2-(4-phenyl-1H-imidazol-2-yl)piperidin-1-yl)propan-1-one] was run?
Answer: The EC50 was 1000 to 35000 nM.

Question: Which EC50 does the source give for `CNCC(=O)Nc1ccc(-c2cnc(C3CCCCN3C(=O)C(C)SC)[nH]2)cc1` (stereo not shown) [Compound 100, 2-(methylamino)-N-(4-(2-(1-(2-(methylthio)propanoyl)piperidin-2-yl)-1H-imidazol-5-yl)phenyl)acetamide] here?
Answer: The EC50 was 50 to 300 nM.

Question: `CSC(C)C(=O)N1CSCC1c1ncc(-c2ccc(C)cc2)[nH]1` (stereo not shown) [Compound 139, 2-(methylthio)-1-(4-(5-(p-tolyl)-1H-imidazol-2-yl)thiazolidin-3-yl)propan-1-one] was tested. Which EC50 did it give?
Answer: The EC50 was 50 to 300 nM.

Question: How did the EC50 turn out when `CCC(OC)C(=O)N1CCCCC1c1nc(-c2ccccc2)c[nH]1` (stereo not shown) [Compound 158, 2-methoxy-1-(2-(4-phenyl-1H-imidazol-2-yl)piperidin-1-yl)butan-1-one] was run?
Answer: Its EC50 is 300 to 1000 nM.

Question: How did the EC50 turn out when `CC=C(CC)C(=O)N1CCCCC1c1nc(-c2ccccc2)c[nH]1` (stereo not shown) [Compound 154, 2-ethyl-1-(2-(4-phenyl-1H-imidazol-2-yl)piperidin-1-yl)but-2-en-1-one] was run?
Answer: The EC50 was 50 to 300 nM.

Question: Which EC50 does the source give for `CSC(C)C(=O)N1CCCCC1c1nc(-c2ccc(CN(C)C)s2)c[nH]1` (stereo not shown) [Compound 42, 1-(2-(4-(5-((dimethylamino)methyl)thiophen-2-yl)-1H-imidazol-2-yl)piperidin-1-yl)-2-(methylthio)propan-1-one] here?
Answer: The EC50 was 1000 to 35000 nM.

Question: `CSC(C)C(=O)N1CCCCC1c1nc(-c2ccc3c(c2)CCO3)c[nH]1` (stereo not shown) [Compound 18, 1-(2-(4-(2,3-dihydrobenzofuran-5-yl)-1H-imidazol-2-yl)piperidin-1-yl)-2-(methylthio)propan-1-one] was tested. Which EC50 did it give?
Answer: Its EC50 is less than 50 nM.

Question: `CC(C(=O)N1CCCCC1c1nc(-c2ccccc2)c[nH]1)C(F)(F)F` (stereo not shown) [Compound 175, 3,3,3-trifluoro-2-methyl-1-(2-(4-phenyl-1H-imidazol-2-yl)piperidin-1-yl)propan-1-one] was tested. Which EC50 did it give?
Answer: Its EC50 is 50 to 300 nM.

Question: How did the EC50 turn out when `CCC(C)(C)C(=O)N1CCCCC1c1ncc(-c2ccc(C)cc2)[nH]1` (stereo not shown) [Compound 143, 2,2-dimethyl-1-(2-(5-(p-tolyl)-1H-imidazol-2-yl)piperidin-1-yl)butan-1-one] was run?
Answer: Its EC50 is less than 50 nM.

Question: `CSC(C)C(=O)N1CCCCC1c1nc(-c2ccsc2)c[nH]1` (stereo not shown) [Compound 117, 2-(methylthio)-1-(2-(4-(thiophen-3-yl)-1H-imidazol-2-yl)piperidin-1-yl)propan-1-one] was tested. Which EC50 did it give?
Answer: Its EC50 is 50 to 300 nM.

Question: `CO[C@@H]1C[C@H]1C(=O)N1CCCCC1c1nc(-c2ccccc2)c[nH]1` (relative stereo) [Compound 5, (trans-2-methoxycyclopropyl)(2-(4-phenyl-1H-imidazol-2-yl)piperidin-1-yl)methanone] was tested. Which EC50 did it give?
Answer: The EC50 was 1000 to 35000 nM.

Question: `C/C=C/C(C)C(=O)N1CCCCC1c1ncc(-c2ccc(C)cc2)[nH]1` (stereo not shown) [Compound 10, (E)-2-methyl-1-(2-(5-(p-tolyl)-1H-imidazol-2-yl)piperidin-1-yl)pent-3-en-1-one] was tested. Which EC50 did it give?
Answer: Its EC50 is less than 50 nM.

Question: Which EC50 does the source give for `CCCc1ccc(-c2cnc(C3CCCCN3C(=O)C(C)SC)[nH]2)cc1` (stereo not shown) [Compound 125, 2-(methylthio)-1-(2-(5-(4-propylphenyl)-1H-imidazol-2-yl)piperidin-1-yl)propan-1-one] here?
Answer: The EC50 was less than 50 nM.

Question: Which EC50 does the source give for `CSC(C)C(=O)N1CCCCC1c1ncc(-c2cccc(C(F)(F)F)c2)[nH]1` (stereo not shown) [Compound 122, 2-(methylthio)-1-(2-(5-(3-(trifluoromethyl)phenyl)-1H-imidazol-2-yl)piperidin-1-yl)propan-1-one] here?
Answer: Its EC50 is 50 to 300 nM.

Question: With `CSC(C)C(=O)N1CCCCC1c1ncc(-c2ccc(N)cc2)[nH]1` (stereo not shown) [Compound 75, 1-(2-(5-(4-aminophenyl)-1H-imidazol-2-yl)piperidin-1-yl)-2-(methylthio)propan-1-one] as the compound, how does the EC50 read?
Answer: Its EC50 is less than 50 nM.

Question: How did the EC50 turn out when `CSC(C)C(=O)N1CCCCC1c1ncc(-c2ccc(C)c(F)c2)[nH]1` (stereo not shown) [Compound 65, 1-(2-(5-(3-fluoro-4-methylphenyl)-1H-imidazol-2-yl)piperidin-1-yl)-2-(methylthio)propan-1-one] was run?
Answer: The EC50 was less than 50 nM.

Question: `CSC(C)C(=O)N1CCCCC1c1nc(-c2ccc(O)cc2)c[nH]1` (stereo not shown) [Compound 39, 1-(2-(4-(4-hydroxyphenyl)-1H-imidazol-2-yl)piperidin-1-yl)-2-(methylthio)propan-1-one] was tested. Which EC50 did it give?
Answer: The EC50 was less than 50 nM.

Question: With `CC(C(=O)N1CCCCC1c1nc(-c2ccccc2)c[nH]1)S(C)(=O)=O` (stereo not shown) [Compound 103, 2-(methylsulfonyl)-1-(2-(4-phenyl-1H-imidazol-2-yl)piperidin-1-yl)propan-1-one] as the compound, how does the EC50 read?
Answer: The EC50 was 1000 to 35000 nM.

Question: With `CC(=O)C(C)C(=O)N1CCCCC1c1ncc(-c2ccc(C)cc2)[nH]1` (stereo not shown) [Compound 167, 2-methyl-1-(2-(5-(p-toly)-1H-imidazol-2-yl)piperidin-1-yl)butane-1,3-dione] as the compound, how does the EC50 read?
Answer: The EC50 was 50 to 300 nM.

Question: Which EC50 does the source give for `CSC(C)C(=O)N1CCCCC1c1ncc(-c2cc(F)ccc2F)[nH]1` (stereo not shown) [Compound 55, 1-(2-(5-(2,5-difluorophenyl)-1H-imidazol-2-yl)piperidin-1-yl)-2-(methylthio)propan-1-one] here?
Answer: Its EC50 is less than 50 nM.

Question: For `COC(C(=O)N1CCCCC1c1nc(-c2ccccc2)c[nH]1)C1CC1` (stereo not shown) [Compound 152, 2-cyclopropyl-2-methoxy-1-(2-(4-phenyl-1H-imidazol-2-yl)piperidin-1-yl)ethan-1-one], which EC50 is on record?
Answer: The EC50 was 300 to 1000 nM.

Question: Which EC50 does the source give for `C=CCCC(=O)N1CCCCC1c1nc(-c2ccccc2)c[nH]1` (stereo not shown) [Compound 51, 1-(2-(4-phenyl-1H-imidazol-2-yl)piperidin-1-yl)pent-4-en-1-one] here?
Answer: The EC50 was 300 to 1000 nM.

Question: For `CSC(C)C(=O)N1CCCCC1c1ncc(-c2ccc(C=O)cc2)[nH]1` (stereo not shown) [Compound 182, 4-(2-(1-(2-(methylthio)propanoyl)piperidin-2-yl)-1H-imidazol-5-yl)benzaldehyde], which EC50 is on record?
Answer: Its EC50 is less than 50 nM.

Question: How did the EC50 turn out when `CSC(C)C(=O)N1CCCCC1c1nc(-c2cscc2C(F)F)c[nH]1` (stereo not shown) [Compound 33] was run?
Answer: Its EC50 is 50 to 300 nM.

Question: For `O=C(Cc1ccoc1)N1CCCCC1c1nc(-c2ccccc2)c[nH]1` (stereo not shown) [Compound 98], which EC50 is on record?
Answer: The EC50 was 50 to 300 nM.

Question: With `CSC(C)C(=O)N1CCC[C@@H]1c1ncc(-c2ccccc2)[nH]1` (stereo partly drawn) [Compound 136, 2-(methylthio)-1-((R)-2-(5-phenyl-1H-imidazol-2-yl)pyrrolidin-1-yl)propan-1-one] as the compound, how does the EC50 read?
Answer: Its EC50 is 1000 to 35000 nM.

Question: How did the EC50 turn out when `COc1ccc(-c2cnc(C3CCCCN3C(=O)C(C)SC)[nH]2)c(C)c1` (stereo not shown) [Compound 80, 1-(2-(5-(4-methoxy-2-methylphenyl)-1H-imidazol-2-yl)piperidin-1-yl)-2-(methylthio)propan-1-one] was run?
Answer: The EC50 was less than 50 nM.

Question: How did the EC50 turn out when `COc1ccc(-c2cnc(C3CCCCN3C(=O)C(C)SC)[nH]2)c(F)c1` (stereo not shown) [Compound 56, 1-(2-(5-(2-fluoro-4-methoxyphenyl)-1H-imidazol-2-yl)piperidin-1-yl)-2-(methylthio)propan-1-one] was run?
Answer: Its EC50 is less than 50 nM.

Question: With `CSC(C)C(=O)N1CCCCC1c1ncc(-c2ccc(C(C)=O)cc2)[nH]1` (stereo not shown) [Compound 74, 1-(2-(5-(4-acetylphenyl)-1H-imidazol-2-yl)piperidin-1-yl)-2-(methylthio)propan--one] as the compound, how does the EC50 read?
Answer: Its EC50 is less than 50 nM.

Question: Which EC50 does the source give for `Cc1ccc(C(C)C(=O)N2CCCCC2c2nc(-c3ccccc3)c[nH]2)o1` (stereo not shown) [Compound 91, 2-(5-methylfuran-2-yl)-1-(2-(4-phenyl-1H-imidazol-2-yl)piperidin-1-yl)propan-1-one] here?
Answer: The EC50 was 50 to 300 nM.

Question: `CSC(C)C(=O)N1CCCCC1c1nc(-c2ccccc2O)c[nH]1` (stereo not shown) [Compound 24, 1-(2-(4-(2-hydroxyphenyl)-1H-imidazol-2-yl)piperidin-1-yl)-2-(methylthio)propan-1-one] was tested. Which EC50 did it give?
Answer: The EC50 was 50 to 300 nM.

Question: Which EC50 does the source give for `CSC(C)C(=O)N1CCCCC1c1ncc(-c2ccc(C#N)cc2F)[nH]1` (stereo not shown) [Compound 178, 3-fluoro-4-(2-(1-(2-(methylthio)propanoyl)piperidin-2-yl)-1H-imidazol-5-yl)benzonitrile] here?
Answer: Its EC50 is less than 50 nM.

Question: For `O=C(Cc1ccco1)N1CCCCC1c1nc(-c2ccccc2)c[nH]1` (stereo not shown) [Compound 96, 2-(furan-2-yl)-1-(2-(4-phenyl-1H-imidazol-2-yl)piperidin-1-yl)ethan-1-one], which EC50 is on record?
Answer: The EC50 was 1000 to 35000 nM.

Question: `CSC(C)C(=O)N1CCCCC1c1nc(-c2c(C)noc2C)c[nH]1` (stereo not shown) [Compound 27, 1-(2-(4-(3,5-dimethylisoxazol-4-yl)-1H-imidazol-2-yl)piperidin-1-yl)-2-(methylthio)propan-1-one] was tested. Which EC50 did it give?
Answer: The EC50 was 1000 to 35000 nM.

Question: With `COc1nscc1-c1cnc(C2CCCCN2C(=O)C(C)SC)[nH]1` (stereo not shown) [Compound 67, 1-(2-(5-(3-methoxyisothiazol-4-yl)-1H-imidazol-2-yl)piperidin-1-yl)-2-(methylthio)propan-1-one] as the compound, how does the EC50 read?
Answer: Its EC50 is 1000 to 35000 nM.

Question: `CCC(C)C(=O)N1CCCCC1c1ncc(-c2ccc(C#N)cc2)[nH]1` (stereo not shown) [Compound 198] was tested. Which EC50 did it give?
Answer: Its EC50 is less than 50 nM.

Question: `CSC(C)(C)C(=O)N1CCCCC1c1ncc(-c2ccc(C)cc2)[nH]1` (stereo not shown) [Compound 171, 2-methyl-2-(methylthio)-1-(2-(5-(p-tolyl)-1H-imidazol-2-yl)piperidin-1-yl)propan-1-one] was tested. Which EC50 did it give?
Answer: Its EC50 is less than 50 nM.
